Data taken from patent US11548871B2, “Triazole carbamate pyridyl sulfonamides as LPA receptor antagonists and uses thereof” (Gilead Sciences, Inc., priority 2019, dated 2023).
pEC50: −log10 of the molar value.

Target: human LPAR1 (Homo sapiens, UniProt Q92633)
Assay: LPAR1 intracellular calcium mobilization assay (antagonist mode)

Chain of human LPAR1 (Q92633 whole entry): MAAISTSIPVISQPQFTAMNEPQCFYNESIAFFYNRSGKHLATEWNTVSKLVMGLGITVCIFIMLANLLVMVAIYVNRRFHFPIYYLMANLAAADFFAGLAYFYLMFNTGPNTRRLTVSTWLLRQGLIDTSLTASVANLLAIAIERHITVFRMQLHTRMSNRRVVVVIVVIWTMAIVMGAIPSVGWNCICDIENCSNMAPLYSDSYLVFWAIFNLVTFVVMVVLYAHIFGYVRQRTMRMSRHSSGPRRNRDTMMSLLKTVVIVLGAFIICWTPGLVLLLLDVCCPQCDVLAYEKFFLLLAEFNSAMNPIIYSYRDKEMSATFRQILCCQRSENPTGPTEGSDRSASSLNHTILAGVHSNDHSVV

| Compound | pEC50 |
| --- | --- |
| Cc1nc(-c2nnn(C)c2NC(=O)OC(C)c2conc2C)ccc1NS(C)(=O)=O (stereo not shown) [Compound 136, 1-(3-methylisoxazol-4-yl)ethyl (1-methyl-4-(6-methyl-5-(methylsulfonamido)pyridin-2-yl)-1H-1,2,3-triazol-5-yl)carbamate] | 5.42 |
| Cc1nc(-c2nnn(C)c2NC(=O)OC(c2cccnc2Cl)C(F)F)ccc1NS(C)(=O)=O (stereo not shown) [Compound 137, 1-(2-chloropyridin-3-yl)-2,2-difluoroethyl (1-methyl-4-(6-methyl-5-(methylsulfonamido)pyridin-2-yl)-1H-1,2,3-triazol-5-yl)carbamate] | 6.31 |
| Cc1nc(-c2nnn(C)c2NC(=O)O[C@H](C)c2cscc2Cl)ccc1NS(C)(=O)=O [Compound 138, (R)-1-(4-chlorothiophen-3-yl)ethyl (1-methyl-4-(6-methyl-5-(methylsulfonamido)pyridin-2-yl)-1H-1,2,3-triazol-5-yl)carbamate] | 7.64 |
| Cc1nc(-c2nnn(C)c2NC(=O)O[C@H](C)c2nc(Cl)sc2Cl)ccc1NS(C)(=O)=O [Compound 139, (R)-1-(2,5-dichlorothiazol-4-yl)ethyl (1-methyl-4-(6-methyl-5-(methylsulfonamido)pyridin-2-yl)-1H-1,2,3-triazol-5-yl)carbamate] | 6.79 |
| Cc1nc(-c2nnn(C)c2NC(=O)O[C@H](C)c2scnc2Cl)ccc1NS(C)(=O)=O [Compound 140, (R)-1-(4-chlorothiazol-5-yl)ethyl (1-methyl-4-(6-methyl-5-(methylsulfonamido)pyridin-2-yl)-1H-1,2,3-triazol-5-yl)carbamate] | 6.52 |
| Cc1nc(-c2nnn(C)c2NC(=O)O[C@H](C)c2cccnc2C)ccc1NS(C)(=O)=O [Compound 141, (R)-1-(2-methylpyridin-3-yl)ethyl (1-methyl-4-(6-methyl-5-(methylsulfonamido)pyridin-2-yl)-1H-1,2,3-triazol-5-yl)carbamate] | 6.14 |
| Cc1nc(-c2nnn(C)c2NC(=O)O[C@H](C)c2cc(Cl)cnc2Cl)ccc1NS(C)(=O)=O [Compound 142, (R)-1-(2,5-dichloropyridin-3-yl)ethyl (1-methyl-4-(6-methyl-5-(methylsulfonamido)pyridin-2-yl)-1H-1,2,3-triazol-5-yl)carbamate] | 6.85 |
| Cc1nc(-c2nnn(C)c2NC(=O)O[C@H](C)c2ccc(F)nc2C)ccc1NS(C)(=O)=O [Compound 143, (R)-1-(6-fluoro-2-methylpyridin-3-yl)ethyl (1-methyl-4-(6-methyl-5-(methylsulfonamido)pyridin-2-yl)-1H-1,2,3-triazol-5-yl)carbamate] | 6.48 |
| COCc1nc(-c2nnn(C)c2NC(=O)O[C@H](C)c2cc(F)cnc2Cl)ccc1NS(C)(=O)=O [Compound 144, (R)-1-(2-Chloro-5-fluoropyridin-3-yl)ethyl (4-(6-(methoxymethyl)-5-(methylsulfonamido)pyridin-2-yl)-1-methyl-1H-1,2,3-triazol-5-yl)carbamate] | 6.63 |
| COCc1nc(-c2nnn(C)c2NC(=O)O[C@H](C)c2cccnc2Cl)ccc1NS(C)(=O)=O [Compound 145, (R)-1-(2-chloropyridin-3-yl)ethyl (4-(6-(methoxymethyl)-5-(methylsulfonamido)pyridin-2-yl)-1-methyl-1H-1,2,3-triazol-5-yl)carbamate] | 6.31 |
| COc1nc(-c2nnn(C)c2NC(=O)O[C@H](C)c2cccnc2Cl)ccc1NS(C)(=O)=O [Compound 146, (R)-1-(2-chloropyridin-3-yl)ethyl (4-(6-methoxy-5-(methylsulfonamido)pyridin-2-yl)-1-methyl-1H-1,2,3-triazol-5-yl)carbamate] | 6.24 |
| CCc1nc(-c2nnn(C)c2NC(=O)O[C@H](C)c2cc(F)cnc2Cl)ccc1NS(C)(=O)=O [Compound 147, (R)-1-(2-chloro-5-fluoropyridin-3-yl)ethyl (4-(6-ethyl-5-(methylsulfonamido)pyridin-2-yl)-1-methyl-1H-1,2,3-triazol-5-yl)carbamate] | 6.90 |
| C[C@@H](OC(=O)Nc1c(-c2ccc(NS(C)(=O)=O)c(C3CC3)n2)nnn1C)c1cccnc1Cl [Compound 149, (R)-1-(2-chloropyridin-3-yl)ethyl (4-(6-cyclopropyl-5-(methylsulfonamido)pyridin-2-yl)-1-methyl-1H-1,2,3-triazol-5-yl)carbamate] | 6.52 |
| C[C@@H](OC(=O)Nc1c(-c2ccc(NS(C)(=O)=O)c(C(F)F)n2)nnn1C)c1ccccc1 [Compound 150, (R)-1-phenylethyl (4-(6-(difluoromethyl)-5-(methylsulfonamido)pyridin-2-yl)-1-methyl-1H-1,2,3-triazol-5-yl)carbamate] | 5.98 |
| CCc1ncccc1[C@@H](C)OC(=O)Nc1c(-c2ccc(NS(C)(=O)=O)c(C)n2)nnn1C [Compound 151, (R)-1-(2-ethylpyridin-3-yl)ethyl (1-methyl-4-(6-methyl-5-(methylsulfonamido)pyridin-2-yl)-1H-1,2,3-triazol-5-yl)carbamate] | 6.23 |
| Cc1nc(-c2nnn(C)c2NC(=O)O[C@H](C)c2cc(F)cnc2C#N)ccc1NS(C)(=O)=O [Compound 152, 1-(2-cyano-5-fluoropyridin-3-yl)ethyl (1-methyl-4-(6-methyl-5-(methylsulfonamido)pyridin-2-yl)-1H-1,2,3-triazol-5-yl)carbamate] | 5.88 |
| C[C@@H](OC(=O)Nc1c(-c2ccc(NS(C)(=O)=O)c(F)n2)nnn1C)c1cccnc1Cl [Compound 153, (R)-1-(2-chloropyridin-3-yl)ethyl (4-(6-fluoro-5-(methylsulfonamido)pyridin-2-yl)-1-methyl-1H-1,2,3-triazol-5-yl)carbamate] | 6.68 |
| C[C@@H](OC(=O)Nc1c(-c2ccc(NS(C)(=O)=O)c(Cl)n2)nnn1C)c1cccnc1Cl [Compound 154, (R)-1-(2-chloropyridin-3-yl)ethyl (4-(6-chloro-5-(methylsulfonamido)pyridin-2-yl)-1-methyl-1H-1,2,3-triazol-5-yl)carbamate] | 6.56 |
| CNc1nc(-c2nnn(C)c2NC(=O)O[C@H](CF)c2ccccc2)ccc1NS(C)(=O)=O [Compound 155, (S)-2-fluoro-1-phenylethyl (1-methyl-4-(6-(methylamino)-5-(methylsulfonamido)pyridin-2-yl)-1H-1,2,3-triazol-5-yl)carbamate] | 7.07 |
| Cc1nc(-c2nnn(C)c2NC(=O)O[C@H](CF)c2ccccc2)c(F)cc1NS(C)(=O)=O [Compound 156, (S)-2-fluoro-1-phenylethyl (4-(3-fluoro-6-methyl-5-(methylsulfonamido)pyridin-2-yl)-1-methyl-1H-1,2,3-triazol-5-yl)carbamate] | 6.79 |
| CCn1nnc(-c2ccc(NS(C)(=O)=O)c(C)n2)c1NC(=O)O[C@H](C)c1cccnc1Cl [Compound 157, (R)-1-(2-chloropyridin-3-yl)ethyl (1-ethyl-4-(6-methyl-5-(methylsulfonamido)pyridin-2-yl)-1H-1,2,3-triazol-5-yl)carbamate] | 6.43 |
| C[C@@H](OC(=O)Nc1c(-c2cc(F)c(NS(C)(=O)=O)cn2)nnn1C)c1cccnc1Cl [Compound 158, (R)-1-(2-chloropyridin-3-yl)ethyl (4-(4-fluoro-5-(methylsulfonamido)pyridin-2-yl)-1-methyl-1H-1,2,3-triazol-5-yl)carbamate] | 7.11 |
| C[C@@H](OC(=O)Nc1c(-c2ccc(NS(=O)(=O)NC3CC3)cn2)nnn1C)c1cccnc1Cl [Compound 159, (R)-1-(2-chloropyridin-3-yl)ethyl (4-(5-((N-cyclopropylsulfamoyl)amino)pyridin-2-yl)-1-methyl-1H-1,2,3-triazol-5-yl)carbamate] | 6.62 |
| CC(C)NS(=O)(=O)Nc1ccc(-c2nnn(C)c2NC(=O)O[C@H](C)c2cccnc2Cl)nc1 [Compound 160, (R)-1-(2-chloropyridin-3-yl)ethyl (4-(5-((N-isopropylsulfamoyl)amino)pyridin-2-yl)-1-methyl-1H-1,2,3-triazol-5-yl)carbamate] | 6.57 |
| C[C@@H](OC(=O)Nc1c(-c2ccc(NS(=O)(=O)C3CNC3)cn2)nnn1C)c1cccnc1Cl [Compound 161, (R)-1-(2-chloropyridin-3-yl)ethyl (4-(5-(azetidine-3-sulfonamido)pyridin-2-yl)-1-methyl-1H-1,2,3-triazol-5-yl)carbamate] | 5.28 |
| CNS(=O)(=O)Nc1ccc(-c2nnn(C)c2NC(=O)O[C@H](C)c2cc(F)cnc2Cl)nc1 [Compound 162, (R)-1-(2-chloro-5-fluoropyridin-3-yl)ethyl (1-methyl-4-(5-((N-methylsulfamoyl)amino)pyridin-2-yl)-1H-1,2,3-triazol-5-yl)carbamate] | 7.09 |
| CNS(=O)(=O)Nc1ccc(-c2nnn(C)c2NC(=O)O[C@H](C)c2cccnc2Cl)nc1C [Compound 163, (R)-1-(2-chloropyridin-3-yl)ethyl (1-methyl-4-(6-methyl-5-((N-methylsulfamoyl)amino)pyridin-2-yl)-1H-1,2,3-triazol-5-yl)carbamate] | 6.68 |
| [2H]C([2H])([2H])N(c1ccc(-c2nnn(C)c2NC(=O)O[C@H](C)c2cccnc2Cl)nc1C)S(C)(=O)=O [Compound 164, (R)-1-(2-chloropyridin-3-yl)ethyl (1-methyl-4-(6-methyl-5-(N-(methyl-d3)methylsulfonamido)pyridin-2-yl)-1H-1,2,3-triazol-5-yl)carbamate] | 6.36 |
